The text below walks through data of ChEMBL document CHEMBL6103628, “Structural Optimization of Covalent Inhibitors for Deubiquitinase ChlaDUB1 of Chlamydia trachomatis as Antibiotic Agents” (J Med Chem, 2025).

Molecules are shown by their SMILES. Converted amounts (≈) assume the structure as drawn. The source made the active and inactive calls. The calls are words filed in the database; no cut-off is given here.

The target of series [1] is T1, Ubiquitin carboxyl-terminal hydrolase 25 (Homo sapiens) (UniProt Q9UHP3).
T1 sequence (whole entry): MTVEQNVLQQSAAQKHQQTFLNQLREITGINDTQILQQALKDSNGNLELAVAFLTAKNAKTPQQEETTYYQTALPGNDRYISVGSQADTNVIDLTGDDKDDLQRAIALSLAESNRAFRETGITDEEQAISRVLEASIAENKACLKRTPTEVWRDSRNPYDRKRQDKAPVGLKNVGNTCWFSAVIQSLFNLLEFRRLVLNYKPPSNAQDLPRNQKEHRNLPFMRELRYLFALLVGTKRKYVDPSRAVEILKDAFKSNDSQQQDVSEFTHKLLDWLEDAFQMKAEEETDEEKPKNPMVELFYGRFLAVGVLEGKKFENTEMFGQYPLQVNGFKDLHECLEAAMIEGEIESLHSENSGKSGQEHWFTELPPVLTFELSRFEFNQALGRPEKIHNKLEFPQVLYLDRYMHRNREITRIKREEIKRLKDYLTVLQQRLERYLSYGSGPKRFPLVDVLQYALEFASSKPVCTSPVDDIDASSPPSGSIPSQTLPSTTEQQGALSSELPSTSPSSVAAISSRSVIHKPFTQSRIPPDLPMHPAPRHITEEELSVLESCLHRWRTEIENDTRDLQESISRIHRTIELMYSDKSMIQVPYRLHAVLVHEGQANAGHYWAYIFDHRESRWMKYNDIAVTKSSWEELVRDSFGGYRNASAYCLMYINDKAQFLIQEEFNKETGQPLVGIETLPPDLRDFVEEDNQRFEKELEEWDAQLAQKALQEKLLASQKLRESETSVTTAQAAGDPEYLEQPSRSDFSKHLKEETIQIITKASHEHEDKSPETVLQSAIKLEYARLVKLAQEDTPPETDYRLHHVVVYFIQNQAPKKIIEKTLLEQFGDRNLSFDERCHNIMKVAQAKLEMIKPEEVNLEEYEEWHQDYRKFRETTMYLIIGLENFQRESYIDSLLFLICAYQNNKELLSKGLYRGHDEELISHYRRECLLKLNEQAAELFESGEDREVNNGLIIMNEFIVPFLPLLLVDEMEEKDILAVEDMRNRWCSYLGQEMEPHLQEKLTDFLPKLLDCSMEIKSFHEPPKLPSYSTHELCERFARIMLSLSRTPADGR
In words: Inhibition of human USP25 at 35 uM relative to control.

Series [2] has as its target T2, OTU domain-containing protein 3 (Homo sapiens) (UniProt Q5T2D3).
T2 sequence (whole entry): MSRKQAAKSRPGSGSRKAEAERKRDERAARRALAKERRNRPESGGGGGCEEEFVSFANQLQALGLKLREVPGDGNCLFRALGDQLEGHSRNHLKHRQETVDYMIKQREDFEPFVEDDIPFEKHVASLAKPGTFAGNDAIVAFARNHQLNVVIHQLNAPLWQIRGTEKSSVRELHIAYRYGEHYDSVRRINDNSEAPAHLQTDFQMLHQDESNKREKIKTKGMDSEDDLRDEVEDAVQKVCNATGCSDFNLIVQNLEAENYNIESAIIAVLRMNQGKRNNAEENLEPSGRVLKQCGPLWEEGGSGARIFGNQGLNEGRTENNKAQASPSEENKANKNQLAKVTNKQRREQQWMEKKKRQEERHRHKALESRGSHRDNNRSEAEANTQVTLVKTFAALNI
Nature of the series: Inhibition of human OTUD3 at 35 uM relative to control.

The target in series [3] is T3, Ubiquitin thioesterase OTUB2 (Homo sapiens) (UniProt Q96DC9).
T3 sequence (whole entry): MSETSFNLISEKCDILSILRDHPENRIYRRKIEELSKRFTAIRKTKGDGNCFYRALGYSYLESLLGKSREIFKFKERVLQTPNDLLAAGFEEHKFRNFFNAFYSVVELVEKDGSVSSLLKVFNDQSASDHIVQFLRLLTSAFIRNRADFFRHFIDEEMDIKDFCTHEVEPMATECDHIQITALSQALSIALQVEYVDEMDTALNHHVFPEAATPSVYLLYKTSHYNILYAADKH
In words: Inhibition of human OTUB2 at 35 uM relative to control.

Series [4] has as its target T4, Ubiquitin carboxyl-terminal hydrolase isozyme L3 (Homo sapiens) (UniProt P15374).
T4 sequence (whole entry): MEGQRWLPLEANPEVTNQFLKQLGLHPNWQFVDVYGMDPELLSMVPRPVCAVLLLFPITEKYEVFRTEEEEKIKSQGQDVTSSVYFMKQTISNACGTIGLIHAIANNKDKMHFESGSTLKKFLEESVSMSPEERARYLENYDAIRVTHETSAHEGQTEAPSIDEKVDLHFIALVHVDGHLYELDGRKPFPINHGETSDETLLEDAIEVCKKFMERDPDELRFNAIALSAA
In words: Inhibition of human UCHL3 at 35 uM relative to control.

The next series has as its system Chlamydia trachomatis. Nature of the series: Anti-chlamydial activity against Chlamydia trachomatis serovar L2 infected in human HEp-2 cells assessed as inhibition of chlamydial inclusion incubated for 16 hrs by Alexa488/DAPI staining based immunofluorescence assay. In kind it is functional, organism-based. The following applies: serovar L2, HEp-2, 16 h.
A further series deals with HeLa. Nature of the series: Cytotoxicity against human HeLa cells assessed as cell viability at 4 to 256 ug/mL measured after 20 hrs by XTT assay. In kind it is toxicity, cell-based. The following applies: dose 4-256 µg/ml. For orientation: Tetrazolium dyes change colour on reduction, which living cells bring about.
A short description of series [5]: Cytotoxicity against HDFa cells assessed as reduction in cell viability at 16 ug/mL measured after 20 hrs by XTT assay. In kind it is toxicity, cell-based. The following applies: human, dose 16 µg/ml.
The test system of the next series is Staphylococcus aureus. In words: Antimicrobial activity against methicillin- resistant Staphylococcus aureus JE2 upto 256 microg/ml incubated for 20 hrs by resazurin staining based microtiter plate reader analysis. Type of series: functional, organism-based. The following applies: dose <= 256.0 µg/ml. In general terms: The colour change of resazurin is a common sign of viable cells or microbes.

Series [6] deals with T5, Deubiquitinase and deneddylase Dub1 (Chlamydia trachomatis serovar L2 (strain ATCC VR-902B / DSM 19102 /434/Bu)) (UniProt B0B9A0).
T5 sequence (whole entry): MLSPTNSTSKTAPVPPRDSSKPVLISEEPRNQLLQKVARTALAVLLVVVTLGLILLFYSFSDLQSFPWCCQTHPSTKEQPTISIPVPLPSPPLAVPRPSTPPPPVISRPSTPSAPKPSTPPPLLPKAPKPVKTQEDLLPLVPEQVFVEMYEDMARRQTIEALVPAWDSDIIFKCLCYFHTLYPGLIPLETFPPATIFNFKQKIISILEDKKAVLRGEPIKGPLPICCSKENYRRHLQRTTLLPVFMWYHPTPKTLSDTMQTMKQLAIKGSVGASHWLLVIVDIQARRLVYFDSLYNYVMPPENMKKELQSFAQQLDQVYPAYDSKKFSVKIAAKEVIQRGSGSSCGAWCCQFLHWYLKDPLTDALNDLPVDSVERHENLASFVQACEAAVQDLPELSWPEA
Nature of the series: Non-covalent inhibition of recombinant Chlamydia trachomatis DUB1 (130 to 401 residues) using Ub-Rh110Gly as fluorogenic substrate incubated for 10 to 360 mins by enzymatic analysis. The following applies: time 10-360 min.

The next series relates to Escherichia coli. In words: Antimicrobial activity against Escherichia coli K12 upto 256 microg/ml incubated for 20 hrs by resazurin staining based microtiter plate reader analysis. In kind it is functional, organism-based. The following applies: dose <= 256.0 µg/ml.

Usually inhibition stands for the relative decrease from the control value, in per cent. Broadly, the IC50 is the point on the concentration scale where inhibition reaches its midpoint. As to `N#Cc1nccc(C(=O)NCc2nn(C(=O)Cc3ccccc3)c3ccccc23)n1`, the inhibition in series [1], in series [2], in [3] and in series [4] was under 25% throughout. Also, in the series on Chlamydia trachomatis, the IC50 came to 25.6 µg/mL (≈ 64.6 µM). Moreover, the Activity result with HeLa is listed as “Non-toxic”; in series [5], “Toxic”. In addition, the result in the series on Staphylococcus aureus and in the series on Escherichia coli was inactive. For the same compound, the inhibition entry in series [6] is “Active”.
